# Experiments:
# HIV-1IIIB = experiment: Direct antiviral activity: MT4-LTR-EGFP cells infected with HIV-1IIIB, EGFP fluorescence; assay type: cell-based; settings: MT4-LTR-EGFP cells, HIV-1IIIB MOI 0.01, 3 days; mean ± SD of three or more measurements; read-out: Inhibition of HIV replication in vitro EC50
# Protocol: After 3 days of incubation, infected cells were quantified by determination of total EGFP fluorescence per well based on microscopy and subsequent image analysis. Threshold values were determined from the average pixel value plus 6 standard deviations from the uninfected control wells, and the median threshold from all control wells on a plate was defined as baseline GFP expression. Intensity values for the sample wells were then determined by subtracting the background threshold from each pixel value obtained from the image of the respective well and calculating the sum of net pixel intensities. Percent inhibition was calculated as 100 * (1 - (Sample - CC)/(VC - CC)).
# [1] = test system: MT4-LTR-EGFP-IIIB HIV-1 producing cells; experiment: in vitro; assay type: cell-based
# Protocol: The cytotoxicity of inhibitors was determined in parallel on MT4-CMV-EGFP control cells and on MT4-LTR-EGFP-IIIB virus producing cells, respectively.
# RT heterodimer (p66/p51) = molecular target: T1, RT heterodimer (p66/p51) (Human immunodeficiency virus type 1 group M subtype B, UniProt P04585); experiment: cell-based; assay type: cell-based, HIV-1
# T1 construct: the bait protein (p66) was fused to the C-terminus of a chimeric receptor; expressed in transfected cells; host or cells: mammalian cells
# Text: RT heterodimer formation was monitored using a mammalian two hybrid system described previously. In brief, the bait protein (p66) was fused to the C-terminus of a chimeric receptor consisting of the extracellular part of the erythropoietin receptor and the intracellular part of the leptin receptor incapable of STAT activation. The prey protein (p51) was coupled to a part of the cytoplasmic tail of the gp130 chain carrying several STAT3 recruitment domains. Interaction of bait and prey protein leads to functional complementation of STAT3 activity, which results in Epo dependent induction of a STAT3-responsive luciferase reporter gene. Enhancement of this interaction by the addition of compounds can thus be measured by an increase of luciferase expression.
smiles,measurement,setting,value
NS(=O)(=O)c1ccc(NC(=O)CSc2nnc(Br)n2-c2ccc(C3CC3)c3ccccc23)c(Cl)c1 [VRX-480773],EC50,HIV-1IIIB,1.6 ± 0.81 nM
same,CC50,"[1]; 4 days, no DRV, mean ± SD, tested up to 10 μM, read-out: Cytotoxicity on MT4-LTR-EGFP-IIIB HIV-1 producing cells CC50",680 ± 340 nM
same,"Cytotoxicity on MT4-LTR-EGFP-IIIB cells, in words",[1]; summary of Table 1,submicromolar range
same,EC50,"RT heterodimer (p66/p51); concentration enhancing luciferase signal by 50% over control, read-out: Enhancement of RT-Dimerization EC50",4 nM
same,"Promotion of RT dimerization, in words",RT heterodimer (p66/p51); summary of Table 1,low nM range

# From article PMC2974656, “Selective killing of human immunodeficiency virus infected cells by non-nucleoside reverse transcriptase inhibitor-induced activation of HIV protease” (Retrovirology, 2010)
